From the supplement of paper PMC10307832

What follows are cell lines tested with CO[C@@H]1[C@H](N(C)C(=O)c2ccccc2)C[C@H]2O[C@]1(C)n1c3ccccc3c3c4c(c5c6ccccc6n2c5c31)C(=O)NC4 [Midostaurin] (assay: relative viability (nuclei count vs DMSO), 5 days (fraction); higher = more cells survive). Settings: 0.1 µM.
Method in brief: (§1)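 Cells of lung cancer lines were placed in 1536-well plates and kept overnight at 37 °C. Pinning then delivered five library-drug doses (not always all listed), spaced by √10, onto plates anchored with vehicle, and the cells were left 5 days without changing medium. One step fixed, permeabilised and stained them with Hoechst, and MetaXpress counted nuclei in 4× images. Viability, as a median over plates, is treated-well nuclei divided by vehicle-well nuclei, with acceptance only at control CV below 25% and at least one doubling.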

| Cell Line | relative viability |
| --- | --- |
| NCI-H650 | 0.922 |

Same assay, conditions: 0.3162 µM

| Cell Line | relative viability |
| --- | --- |
| NCI-H460 | 1.01 |
| NCI-H2347 | 1.09 |
| SK-LU-1 | 0.953 |
| NCI-H1395 | 0.922 |
| 201T | 1.03 |
| NCI-H1915 | 1.03 |
| HCC-827 | 1.04 |
| LXF-289 | 1.03 |
| NCI-H23 | 0.562 |
| NCI-H647 | 0.884 |
| CAL-12T | 0.839 |
| NCI-H1651 | 1.09 |
| EPLC-272H | 0.969 |
| NCI-H2228 | 1.18 |
| NCI-H1792 | 0.777 |
| NCI-H1355 | 1.04 |
| NCI-H3122 | 1.05 |
| NCI-H1437 | 0.92 |
| NCI-H1755 | 0.977 |
| NCI-H2023 | 0.59 |
| HCC-15 | 1.05 |
| NCI-H1793 | 0.762 |
| PC-14 | 0.961 |
| EKVX | 1 |
| LC-2-ad | 0.892 |
| NCI-H1944 | 1.15 |
| NCI-H1975 | 0.799 |
| RERF-LC-KJ | 1.04 |
| NCI-H358 | 0.85 |
| NCI-H650 | 0.858 |

Each cell line was assayed with COc1cc(-c2nn([C@H]3CC[C@H](N4CCN(C(C)=O)CC4)CC3)c3ncnc(N)c23)ccc1NC(=O)c1cc2ccccc2n1C in the same assay as above. Settings: 0.0128 µM.
Method in brief: as §1

| Cell Line | relative viability |
| --- | --- |
| NCI-H460 | 0.977 |
| NCI-H2347 | 1.01 |
| SK-LU-1 | 1.08 |
| NCI-H1395 | 0.907 |
| 201T | 1.02 |
| NCI-H1915 | 1.03 |
| HCC-827 | 0.98 |
| LXF-289 | 1.11 |
| NCI-H23 | 0.951 |
| NCI-H647 | 1.09 |
| CAL-12T | 1.03 |
| NCI-H1651 | 0.97 |
| EPLC-272H | 0.906 |
| NCI-H2228 | 1.22 |
| NCI-H1792 | 0.975 |
| NCI-H1355 | 1.06 |
| NCI-H3122 | 1.07 |
| NCI-H1437 | 0.979 |
| NCI-H1755 | 1.12 |
| NCI-H2023 | 1.02 |
| HCC-15 | 1.21 |
| NCI-H1793 | 0.904 |
| PC-14 | 1.09 |
| EKVX | 0.941 |
| LC-2-ad | 1.09 |
| NCI-H1944 | 1.09 |
| NCI-H1975 | 0.958 |
| RERF-LC-KJ | 1 |
| NCI-H358 | 0.889 |
| NCI-H650 | 1.13 |

Same assay, conditions: 0.04048 µM

| Cell Line | relative viability |
| --- | --- |
| NCI-H460 | 0.983 |
| NCI-H2347 | 0.781 |
| SK-LU-1 | 0.994 |
| NCI-H1395 | 0.847 |
| 201T | 1.03 |
| NCI-H1915 | 0.783 |
| HCC-827 | 1.03 |
| LXF-289 | 0.989 |
| NCI-H23 | 0.726 |
| NCI-H647 | 0.961 |
| CAL-12T | 1.03 |
| NCI-H1651 | 1.07 |
| EPLC-272H | 0.873 |
| NCI-H2228 | 1 |
| NCI-H1792 | 0.878 |
| NCI-H1355 | 0.981 |
| NCI-H1437 | 1.04 |
| NCI-H1755 | 0.983 |
| NCI-H2023 | 1.13 |
| HCC-15 | 0.785 |
| NCI-H1793 | 0.827 |
| PC-14 | 1.13 |
| EKVX | 1.06 |
| LC-2-ad | 0.976 |
| NCI-H1944 | 0.983 |
| NCI-H1975 | 0.972 |
| RERF-LC-KJ | 0.991 |
| NCI-H358 | 0.703 |
| NCI-H650 | 1.25 |

Same assay, conditions: 0.128 µM

| Cell Line | relative viability |
| --- | --- |
| NCI-H460 | 0.907 |
| NCI-H2347 | 1.04 |
| SK-LU-1 | 0.864 |
| NCI-H1395 | 0.798 |
| 201T | 0.927 |
| NCI-H1915 | 0.957 |
| HCC-827 | 0.957 |
| LXF-289 | 1.01 |
| NCI-H23 | 0.901 |
| NCI-H647 | 0.88 |
| CAL-12T | 1.06 |
| NCI-H1651 | 0.923 |
| EPLC-272H | 0.963 |
| NCI-H2228 | 1.12 |
| NCI-H1792 | 1.02 |
| NCI-H1355 | 0.943 |
| NCI-H3122 | 0.987 |
| NCI-H1437 | 0.964 |
| NCI-H1755 | 0.937 |
| NCI-H2023 | 0.923 |
| HCC-15 | 0.971 |
| NCI-H1793 | 0.858 |
| PC-14 | 0.957 |
| EKVX | 0.987 |
| LC-2-ad | 0.959 |
| NCI-H1944 | 0.921 |
| NCI-H1975 | 0.875 |
| RERF-LC-KJ | 0.94 |
| NCI-H358 | 0.702 |
| NCI-H650 | 0.911 |

Same assay, conditions: 1.28 µM

| Cell Line | relative viability |
| --- | --- |
| NCI-H460 | 0.989 |
| NCI-H2347 | 1.08 |
| SK-LU-1 | 0.597 |
| NCI-H1395 | 0.659 |
| 201T | 0.716 |
| NCI-H1915 | 0.831 |
| HCC-827 | 0.753 |
| LXF-289 | 1.06 |
| NCI-H23 | 0.946 |
| NCI-H647 | 0.623 |
| CAL-12T | 0.991 |
| NCI-H1651 | 0.968 |
| EPLC-272H | 0.865 |
| NCI-H2228 | 0.744 |
| NCI-H1792 | 0.951 |
| NCI-H1355 | 0.953 |
| NCI-H3122 | 0.76 |
| NCI-H1437 | 0.906 |
| NCI-H1755 | 0.938 |
| NCI-H2023 | 0.906 |
| HCC-15 | 1.06 |
| NCI-H1793 | 0.649 |
| PC-14 | 1.08 |
| EKVX | 0.56 |
| LC-2-ad | 0.958 |
| NCI-H1944 | 0.769 |
| NCI-H1975 | 0.479 |
| RERF-LC-KJ | 0.896 |
| NCI-H358 | 0.335 |
| NCI-H650 | 1.01 |
